Laboratory results from PMC13064811, “The Role of Disulfide Bonds in the GluN1 Subunit in the Early Trafficking and Functional Properties of GluN1/GluN2 and GluN1/GluN3 NMDA Receptors” (The Journal of Neuroscience, 2026).
Like-named read-outs stand apart in the source and are kept apart here.

How the values were obtained:
[1] = target: T1, hGluN1-4a/hGluN2A (Homo sapiens, UniProt Q05586+Q12879); assay type: cell-based; conditions: for effect on peak current amplitudes (redox sensitivity): pretreatment with 4 mM DTT or 0.5 mM DTNB, each for 2 min
T1 construct: GluN1-4a (hGluN1-4a; NP_000823.4); GluN2A (hGluN2A; NP_001127879.1); expressed in transfected cells; host or cells: HEK293T

[2] = target: T2, hGluN1-4a-C744Y/hGluN2A (Homo sapiens, UniProt Q05586+Q12879, C744Y); assay type: cell-based; conditions: for effect on peak current amplitudes (redox sensitivity): pretreatment with 4 mM DTT or 0.5 mM DTNB, each for 2 min
T2 construct: GluN1-4a (hGluN1-4a; NP_000823.4); GluN2A (hGluN2A; NP_001127879.1); expressed in transfected cells; host or cells: HEK293T

[3] = target: T3, hGluN1-4a/hGluN2B (Homo sapiens, UniProt Q05586+Q13224); assay type: cell-based; conditions: pretreatment with 4 mM DTT or 0.5 mM DTNB, each for 2 min
T3 construct: GluN1-4a (hGluN1-4a; NP_000823.4); GluN2B (hGluN2B; NP_000825.2); expressed in transfected cells; host or cells: HEK293T
T3 sequence (Q13224 27-1484, other chains not shown): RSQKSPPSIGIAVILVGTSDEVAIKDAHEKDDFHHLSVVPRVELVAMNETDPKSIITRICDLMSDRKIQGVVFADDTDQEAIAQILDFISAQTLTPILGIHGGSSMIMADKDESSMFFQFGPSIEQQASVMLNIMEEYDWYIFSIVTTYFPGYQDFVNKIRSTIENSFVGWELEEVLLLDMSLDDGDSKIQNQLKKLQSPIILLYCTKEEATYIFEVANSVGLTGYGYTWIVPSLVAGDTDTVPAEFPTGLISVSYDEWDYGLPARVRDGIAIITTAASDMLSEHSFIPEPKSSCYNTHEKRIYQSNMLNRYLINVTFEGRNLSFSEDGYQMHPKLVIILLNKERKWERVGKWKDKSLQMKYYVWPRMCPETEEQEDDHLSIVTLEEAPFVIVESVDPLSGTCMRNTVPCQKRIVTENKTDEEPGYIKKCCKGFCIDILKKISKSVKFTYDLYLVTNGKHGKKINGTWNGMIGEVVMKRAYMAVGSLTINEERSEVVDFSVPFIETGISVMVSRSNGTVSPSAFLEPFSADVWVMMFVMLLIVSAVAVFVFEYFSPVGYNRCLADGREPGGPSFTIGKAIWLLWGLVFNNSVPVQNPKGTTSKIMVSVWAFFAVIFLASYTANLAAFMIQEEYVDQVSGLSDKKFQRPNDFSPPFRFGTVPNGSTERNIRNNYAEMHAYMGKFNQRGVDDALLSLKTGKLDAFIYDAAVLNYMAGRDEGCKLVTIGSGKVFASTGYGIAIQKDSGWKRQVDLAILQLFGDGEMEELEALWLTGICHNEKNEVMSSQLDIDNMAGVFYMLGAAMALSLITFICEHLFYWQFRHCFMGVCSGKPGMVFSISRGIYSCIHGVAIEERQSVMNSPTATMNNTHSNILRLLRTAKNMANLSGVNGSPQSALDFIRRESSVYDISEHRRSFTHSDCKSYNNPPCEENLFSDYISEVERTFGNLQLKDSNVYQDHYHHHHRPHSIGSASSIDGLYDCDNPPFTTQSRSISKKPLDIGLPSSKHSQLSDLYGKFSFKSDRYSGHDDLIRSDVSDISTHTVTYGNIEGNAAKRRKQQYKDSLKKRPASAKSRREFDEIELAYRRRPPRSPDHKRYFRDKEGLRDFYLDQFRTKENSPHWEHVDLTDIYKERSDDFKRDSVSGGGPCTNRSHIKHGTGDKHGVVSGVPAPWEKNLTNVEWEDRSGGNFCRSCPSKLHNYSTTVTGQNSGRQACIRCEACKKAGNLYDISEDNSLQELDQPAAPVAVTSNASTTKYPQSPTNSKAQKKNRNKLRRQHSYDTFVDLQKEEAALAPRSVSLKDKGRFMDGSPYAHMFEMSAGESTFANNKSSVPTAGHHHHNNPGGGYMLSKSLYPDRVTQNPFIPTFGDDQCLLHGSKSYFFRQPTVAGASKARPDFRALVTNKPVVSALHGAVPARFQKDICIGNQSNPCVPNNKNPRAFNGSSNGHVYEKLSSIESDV

[4] = target: T4, hGluN1-4a-C744Y/hGluN2B (Homo sapiens, UniProt Q05586+Q13224, C744Y); assay type: cell-based
T4 construct: GluN1-4a (hGluN1-4a; NP_000823.4); GluN2B (hGluN2B; NP_000825.2); expressed in transfected cells; host or cells: HEK293T
T4 sequence (Q13224 27-1484, other chains not shown): as above

[5] = target: YFP-hGluN1-1a/hGluN2A (Homo sapiens, UniProt Q05586+Q12879); assay type: cell-based
[6] = target: YFP-hGluN1-1a-C744Y/hGluN2A (Homo sapiens, UniProt Q05586+Q12879, C744Y); assay type: cell-based
[7] = target: YFP-hGluN1-1a/hGluN2B (Homo sapiens, UniProt Q05586+Q13224); assay type: cell-based
YFP-hGluN1-1a/hGluN2B, sequence (Q13224 27-1484, other chains not shown): as above

[8] = target: YFP-hGluN1-1a-C744Y/hGluN2B (Homo sapiens, UniProt Q05586+Q13224, C744Y); assay type: cell-based
[9] = tested on: GluN1-C454S/GluN2B; conditions: cited from earlier work
[10] = tested on: GluN1-C436S/GluN2B; conditions: cited from earlier work
[11] = tested on: GluN1-C455S/GluN2B; conditions: cited from earlier work
[12] = target: GluN1-C744Y/GluN2A receptors; conditions: cited from earlier work
[13] = target: YFP-GluN1-1a/GluN2A (Rattus norvegicus, UniProt P35439+Q00959)
[14] = target: YFP-GluN1-1a-C79S-C308S/GluN2A (Rattus norvegicus, UniProt P35439+Q00959, C308S/C79S)
[15] = target: YFP-GluN1-1a-C420S-C454S/GluN2A (Rattus norvegicus, UniProt P35439+Q00959, C420S/C454S)
[16] = target: YFP-GluN1-4a-C436S-C455S/GluN2A (Rattus norvegicus, UniProt P35439+Q00959, C436S/C455S)
[17] = target: YFP-GluN1-1a-C744S-C798S/GluN2A (Rattus norvegicus, UniProt P35439+Q00959, C744S/C798S)
[18] = target: YFP-GluN1-1a/GluN2B (Rattus norvegicus, UniProt P35439+Q00960)
[19] = target: YFP-GluN1-1a-C79S-C308S/GluN2B (Rattus norvegicus, UniProt P35439+Q00960, C308S/C79S)
[20] = target: YFP-GluN1-1a-C420S-C454S/GluN2B (Rattus norvegicus, UniProt P35439+Q00960, C420S/C454S)
[21] = target: YFP-GluN1-4a-C436S-C455S/GluN2B (Rattus norvegicus, UniProt P35439+Q00960, C436S/C455S)
[22] = target: YFP-GluN1-1a-C744S-C798S/GluN2B (Rattus norvegicus, UniProt P35439+Q00960, C744S/C798S)
[23] = target: GluN1-4a/GluN2A (Rattus norvegicus, UniProt P35439+Q00959)
[24] = target: GluN1-4a-C79S-C308S/GluN2A (Rattus norvegicus, UniProt P35439+Q00959, C308S/C79S)
[25] = target: GluN1-4a-C420S-C454S/GluN2A (Rattus norvegicus, UniProt P35439+Q00959, C420S/C454S)
[26] = target: GluN1-4a-C436S-C455S/GluN2A (Rattus norvegicus, UniProt P35439+Q00959, C436S/C455S)
[27] = target: GluN1-4a-C744S-C798S/GluN2A (Rattus norvegicus, UniProt P35439+Q00959, C744S/C798S)
[28] = target: GluN1-4a/GluN2B (Rattus norvegicus, UniProt P35439+Q00960)
[29] = target: GluN1-4a-C79S-C308S/GluN2B (Rattus norvegicus, UniProt P35439+Q00960, C308S/C79S)
[30] = target: GluN1-4a-C436S-C455S/GluN2B (Rattus norvegicus, UniProt P35439+Q00960, C436S/C455S)
[31] = target: GluN1-4a-C744S-C798S/GluN2B (Rattus norvegicus, UniProt P35439+Q00960, C744S/C798S)
[32] = tested on: GluN1-C79S-C308S/GluN2A receptors; conditions: cited from earlier work
[33] = tested on: YFP-hGluN1/hGluN2A receptors; assay type: cell-based, rat
[34] = tested on: YFP-hGluN1/hGluN2B receptors; assay type: cell-based, rat
[35] = tested on: YFP-GluN1-1a/GluN3A
[36] = tested on: YFP-GluN1-1a-C744S-C798S/GluN3A
[37] = tested on: YFP-hGluN1-1a/hGluN3A
[38] = tested on: YFP-hGluN1-1a-C744Y/hGluN3A
[39] = tested on: hippocampal neurons expressing YFP-hGluN1-1a or YFP-hGluN1-1a-C744Y subunits; experiment: NMDA-induced excitotoxicity assay; assay type: cell-based, rat; conditions: 10 µM memantine; death induced by 30 µM NMDA and 10 µM glycine
[40] = target: T3, hGluN1-4a/hGluN2B; design: method as in Konecny et al., 2024; conditions: ref Konecny et al., 2024, cited from earlier work
[41] = read-out: EC50 value for glycine
[42] = 1 mM L-glutamate and 100 µM glycine, −60 mV
[43] = offset of inhibition, 1 mM glutamate and 100 µM glycine
[44] = onset of inhibition, 1 mM glutamate and 100 µM glycine

## O[C@@H](CS)[C@@H](O)CS (racemic) [DTT, dithiothreitol]
[1]
  effect on peak current amplitudes (redox sensitivity): neither condition (DTT or DTNB) altered the peak current amplitudes
[2]
  effect on peak current amplitudes (redox sensitivity): neither condition (DTT or DTNB) altered the peak current amplitudes
[3]
  effect on peak current amplitudes (redox sensitivity): reduced the peak current amplitudes
[4]; pretreatment with 4 mM DTT, 2 min
  effect on peak current amplitudes (redox sensitivity): did not affect

## O=C(O)c1cc(SSc2ccc([N+](=O)[O-])c(C(=O)O)c2)ccc1[N+](=O)[O-] [DTNB, 5,5′-dithiobis-(2-nitrobenzoic acid)]
[1]
  effect on peak current amplitudes (redox sensitivity): neither condition (DTT or DTNB) altered the peak current amplitudes
[2]
  effect on peak current amplitudes (redox sensitivity): neither condition (DTT or DTNB) altered the peak current amplitudes

## N[C@@H](CCC(=O)O)C(=O)O [L-glutamate]
[5]; YFP-hGluN1-1a/hGluN2A, −60 mV
  L-glutamate h (Hill coefficient): 1.36 ± 0.10
[6]; YFP-hGluN1-1a-C744Y/hGluN2A, −60 mV
  L-glutamate h (Hill coefficient): 1.33 ± 0.09
[7]; YFP-hGluN1-1a/hGluN2B, −60 mV
  L-glutamate h (Hill coefficient): 1.06 ± 0.06
[8]; YFP-hGluN1-1a-C744Y/hGluN2B, −60 mV
  L-glutamate h (Hill coefficient): 0.89 ± 0.05
[9]; read-out: EC50 L-glutamate
  EC50: 1700 nM
[10]; read-out: EC50 L-glutamate
  EC50: 3000 nM
[11]; read-out: EC50 L-glutamate
  EC50: 3000 nM
[12]; read-out: EC50 value for L-glutamate
  EC50: 1100 nM

## C[C@]12N[C@H](Cc3ccccc31)c1ccccc12 [MK-801, Dizocilpine]
[5]
  τon-MK-801: 789.63 ± 58.54 ms
[6]
  τon-MK-801: 240.25 ± 29.53 ms
[7]
  τon-MK-801: 2,008.90 ± 224.76 ms
[8]
  τon-MK-801: 846.35 ± 52.08 ms
[13]
  τon-MK-801: 1,178.37 ± 93.82 ms
[14]
  τon-MK-801: 1,109.06 ± 65.15 ms
[15]
  τon-MK-801: 1,045.30 ± 112.94 ms
[16]
  τon-MK-801: 937.85 ± 78.10 ms
[17]
  τon-MK-801: 345.28 ± 25.68 ms
[18]
  τon-MK-801: 2,053.21 ± 117.07 ms
[19]
  τon-MK-801: 3,010.09 ± 193.67 ms
[20]
  τon-MK-801: 2,612.49 ± 167.91 ms
[21]
  τon-MK-801: 2,040.87 ± 282.26 ms
[22]
  τon-MK-801: 765.01 ± 74.13 ms
[23]
  τon-MK-801: 981.54 ± 19.11 ms
[24]
  τon-MK-801: 1,038.07 ± 140.54 ms
[25]
  τon-MK-801: 987.68 ± 105.05 ms
[26]
  τon-MK-801: 910.61 ± 85.39 ms
[27]
  τon-MK-801: 278.04 ± 55.79 ms
[28]
  τon-MK-801: 2,307.47 ± 151.45 ms
[29]
  τon-MK-801: 3,355.73 ± 243.72 ms
[30]
  τon-MK-801: 1,988.70 ± 356.79 ms
[31]
  τon-MK-801: 486.89 ± 100.90 ms

## CN[C@H](CC(=O)O)C(=O)O [NMDA]
[32]
  increase of the EC50 value for NMDA: ~25%

## NC1=N[C@H](O)[C@H]2[C@H]3O[C@]4(O)O[C@@H]([C@@H](O)[C@@]2(N1)[C@@H]4O)[C@]3(O)CO [TTX, tetrodotoxin]
[33]
  relative surface expression: no alterations in the relative surface expression levels

## CN1CCc2cc3c(cc2[C@H]1[C@@H]1OC(=O)c2c1ccc1c2OCO1)OCO3 [bicuculline]
[33]
  relative surface expression: no alterations in the relative surface expression levels
[34]
  relative surface expression: increased relative surface expression

## NCC(=O)O [glycine]
[5]
  Glycine h (Hill coefficient): 1.46 ± 0.07
[5]; read-out: Glycine EC50
  EC50: 2910 ± 290 nM
[6]
  Glycine h (Hill coefficient): 1.47 ± 0.08
[6]; read-out: Glycine EC50
  EC50: 3.01 ± 0.41 µM
[7]
  Glycine h (Hill coefficient): 0.83 ± 0.06
[8]
  Glycine h (Hill coefficient): 0.80 ± 0.03
[8]; read-out: Glycine EC50
  EC50: 590 ± 80 nM
[35]
  h (Hill coefficient), glycine: 1.26 ± 0.15
[35]; read-out: Glycine EC50
  EC50: 52.3 ± 13 µM
[36]
  h (Hill coefficient), glycine: 0.88 ± 0.09
[36]; read-out: Glycine EC50
  EC50: 213 ± 30.8 µM
[37]
  Glycine h (Hill coefficient): 0.61 ± 0.02
[37]; read-out: Glycine EC50
  EC50: 70.5 ± 10.7 µM
[38]
  Glycine h (Hill coefficient): 0.75 ± 0.03
[38]; read-out: Glycine EC50
  EC50: 368 ± 51 µM
[32]; [41]
  EC50: 2620 nM
[9]; read-out: EC50 glycine
  EC50: 730 nM
[10]; read-out: EC50 glycine
  EC50: 720 nM
[11]; read-out: EC50 glycine
  EC50: 250 nM
[12]; [41]
  EC50: 700 nM

## CC12CC3CC(C)(C1)CC(N)(C3)C2 [memantine]
[1]; [42]
  h (Hill coefficient), memantine: 1.04 ± 0.06
[1]; [43]
  τoff 1 μM memantine: 510.08 ± 40.38 ms
[1]; [44]
  τon 1 μM memantine: 440.47 ± 39.77 ms
[2]; [42]
  h (Hill coefficient), memantine: 0.94 ± 0.06
[2]; [43]
  τoff 1 μM memantine: 458.37 ± 83.04 ms
[2]; [44]
  τon 1 μM memantine: 292.14 ± 24.73 ms
[4]; [42]
  h (Hill coefficient), memantine: 0.86 ± 0.05
[4]; [43]
  τoff 1 μM memantine: 811.87 ± 56.87 ms
[4]; [44]
  τon 1 μM memantine: 519.40 ± 26.19 ms
[39]
  neuronal death: reduced neuronal death
[40]; [42]
  h (Hill coefficient), memantine: 1.04 ± 0.03
[40]; [43]
  τoff 1 μM memantine: 758.93 ± 49.66 ms
[40]; [44]
  τon 1 μM memantine: 708.99 ± 49.40 ms
